According to PubChem BioAssay AID1963985 (Molecular Pharmacology Branch, DTP, NCI, 2024):

Tested on: 252836-082-R-J2-PDC tumor spheroids, viability
Test: Anticancer human tumor 252836-082-R-J2-PDC patient-derived head and neck squamous cell carcinoma cell line growth inhibition [PI3K]
Conditions: spheroids with HUVEC and MSC; for IC50: curve of first compound; for viability, T/C: stronger effect = lower value
How it was run: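 Three cell types, namely tumor cells, endothelial cells and mesenchymal stem cells, formed each spheroid. Combinations with four PI3K inhibitors were screened at clinically achievable concentrations decreasing by half-log, and spheroid viability was recorded.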
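Further: spheroids exposed to agents for seven days before readout.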
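Wherever viability, T/C is given: percent of vehicle DMSO control viability so 100% = untreated growth.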

With `Cn1cnc2c(F)c(Nc3ccc(Br)cc3Cl)c(C(=O)NOCCO)cc21` + CC(Nc1ncnc2nc[nH]c12)c1cc2cccc(Cl)c2c(=O)n1-c1ccccc1 the IC50 (second compound 0.0316 µM) was 2200 nM, the IC50 (second compound 0.1 µM) was 2800 nM and the IC50 (second compound 0.316 µM) was 2610 nM. The IC50 (second compound 1 µM) was 2100 nM, the IC50 (second compound 3.16 µM) was 1480 nM and the IC50 (second compound 10 µM) was 923 nM. The viability, T/C (second compound 0.0316 µM, first compound 0.00949 µM) was 102%, the viability, T/C (second compound 0.0316 µM, first compound 0.03 µM) was 76.5% and the viability, T/C (second compound 0.0316 µM, first compound 0.0949 µM) was 81.5%. For the same compound, the viability, T/C (second compound 0.0316 µM, first compound 0.3 µM) was 92.7%, the viability, T/C (second compound 0.0316 µM, first compound 0.949 µM) was 65.5% and the viability, T/C (second compound 0.0316 µM, first compound 3 µM) was 44.2%. For the same compound, the viability, T/C (second compound 0.1 µM, first compound 0.00949 µM) was 89.9%, the viability, T/C (second compound 0.1 µM, first compound 0.03 µM) was 77.2% and the viability, T/C (second compound 0.1 µM, first compound 0.0949 µM) was 88.8%. The viability, T/C (second compound 0.1 µM, first compound 0.3 µM) was 95.3%, the viability, T/C (second compound 0.1 µM, first compound 0.949 µM) was 74.5% and the viability, T/C (second compound 0.1 µM, first compound 3 µM) was 48.4%. For the same compound, the viability, T/C (second compound 0.316 µM, first compound 0.00949 µM) was 88%, the viability, T/C (second compound 0.316 µM, first compound 0.03 µM) was 87.2% and the viability, T/C (second compound 0.316 µM, first compound 0.0949 µM) was 88.6%. For the same compound, the viability, T/C (second compound 0.316 µM, first compound 0.3 µM) was 79.3%, the viability, T/C (second compound 0.316 µM, first compound 0.949 µM) was 77.1% and the viability, T/C (second compound 0.316 µM, first compound 3 µM) was 46%. For the same compound, the viability, T/C (second compound 1 µM, first compound 0.00949 µM) was 89.8%, the viability, T/C (second compound 1 µM, first compound 0.03 µM) was 77.3% and the viability, T/C (second compound 1 µM, first compound 0.0949 µM) was 85.3%. For the same compound, the viability, T/C (second compound 1 µM, first compound 0.3 µM) was 75.6%, the viability, T/C (second compound 1 µM, first compound 0.949 µM) was 72% and the viability, T/C (second compound 1 µM, first compound 3 µM) was 40.4%. For the same compound, the viability, T/C (second compound 3.16 µM, first compound 0.00949 µM) was 82.1%, the viability, T/C (second compound 3.16 µM, first compound 0.03 µM) was 78.5% and the viability, T/C (second compound 3.16 µM, first compound 0.0949 µM) was 64.6%. The viability, T/C (second compound 3.16 µM, first compound 0.3 µM) was 66%, the viability, T/C (second compound 3.16 µM, first compound 0.949 µM) was 61.3% and the viability, T/C (second compound 3.16 µM, first compound 3 µM) was 38.6%. It also gave a viability, T/C (second compound 10 µM, first compound 0.00949 µM) of 67.3%, a viability, T/C (second compound 10 µM, first compound 0.03 µM) of 67.1% and a viability, T/C (second compound 10 µM, first compound 0.0949 µM) of 64.2%. For the same compound, the viability, T/C (second compound 10 µM, first compound 0.3 µM) was 54.4%, the viability, T/C (second compound 10 µM, first compound 0.949 µM) was 53.6% and the viability, T/C (second compound 10 µM, first compound 3 µM) was 31.4%.
`C=CC(=O)N1CCN(c2nc(=O)n(-c3c(C)ccnc3C(C)C)c3nc(-c4c(O)cccc4F)c(F)cc23)C(C)C1` (centres undefined) + Cc1nc(NC(=O)N2CCCC2C(N)=O)sc1-c1ccnc(C(C)(C)C(F)(F)F)c1 showed an IC50 (second compound 0.0316 µM) greater than 10000 nM, an IC50 (second compound 0.1 µM) greater than 10000 nM and an IC50 (second compound 0.316 µM) greater than 10000 nM. The IC50 (second compound 1 µM) was greater than 10000 nM, the IC50 (second compound 3.16 µM) was less than 31.6 nM and the IC50 (second compound 10 µM) was less than 31.6 nM. For the same compound, the viability, T/C (second compound 0.0316 µM, first compound 0.0316 µM) was 101%, the viability, T/C (second compound 0.0316 µM, first compound 0.1 µM) was 87.1% and the viability, T/C (second compound 0.0316 µM, first compound 0.316 µM) was 104%. The viability, T/C (second compound 0.0316 µM, first compound 1 µM) was 95.7%, the viability, T/C (second compound 0.0316 µM, first compound 3.16 µM) was 107% and the viability, T/C (second compound 0.0316 µM, first compound 10 µM) was 107%. It also gave a viability, T/C (second compound 0.1 µM, first compound 0.0316 µM) of 78.5%, a viability, T/C (second compound 0.1 µM, first compound 0.1 µM) of 82.1% and a viability, T/C (second compound 0.1 µM, first compound 0.316 µM) of 101%. The viability, T/C (second compound 0.1 µM, first compound 1 µM) was 79.5%, the viability, T/C (second compound 0.1 µM, first compound 3.16 µM) was 105% and the viability, T/C (second compound 0.1 µM, first compound 10 µM) was 95.8%. It also gave a viability, T/C (second compound 0.316 µM, first compound 0.0316 µM) of 79.9%, a viability, T/C (second compound 0.316 µM, first compound 0.1 µM) of 83.2% and a viability, T/C (second compound 0.316 µM, first compound 0.316 µM) of 76%. It also gave a viability, T/C (second compound 0.316 µM, first compound 1 µM) of 86.5%, a viability, T/C (second compound 0.316 µM, first compound 3.16 µM) of 84.5% and a viability, T/C (second compound 0.316 µM, first compound 10 µM) of 80.9%. It also gave a viability, T/C (second compound 1 µM, first compound 0.0316 µM) of 61.2%, a viability, T/C (second compound 1 µM, first compound 0.1 µM) of 60.4% and a viability, T/C (second compound 1 µM, first compound 0.316 µM) of 80.3%. For the same compound, the viability, T/C (second compound 1 µM, first compound 1 µM) was 73%, the viability, T/C (second compound 1 µM, first compound 3.16 µM) was 64.9% and the viability, T/C (second compound 1 µM, first compound 10 µM) was 75.9%. The viability, T/C (second compound 3.16 µM, first compound 0.0316 µM) was 47.2%, the viability, T/C (second compound 3.16 µM, first compound 0.1 µM) was 49.1% and the viability, T/C (second compound 3.16 µM, first compound 0.316 µM) was 50.2%. For the same compound, the viability, T/C (second compound 3.16 µM, first compound 1 µM) was 49.2%, the viability, T/C (second compound 3.16 µM, first compound 3.16 µM) was 74% and the viability, T/C (second compound 3.16 µM, first compound 10 µM) was 44.9%. For the same compound, the viability, T/C (second compound 10 µM, first compound 0.0316 µM) was 37.2%, the viability, T/C (second compound 10 µM, first compound 0.1 µM) was 34.5% and the viability, T/C (second compound 10 µM, first compound 0.316 µM) was 36.3%. The viability, T/C (second compound 10 µM, first compound 1 µM) was 36.5%, the viability, T/C (second compound 10 µM, first compound 3.16 µM) was 40.2% and the viability, T/C (second compound 10 µM, first compound 10 µM) was 42.2%.
